Values joined by “and” are separate entries in the source; they are usually repeats but may differ in a detail not shown here. Identical values can stand only once.
Tests used:
CatL = biological target: T1, CatL (Homo sapiens, UniProt P07711); assay: Cathepsin inhibition test, CatL; assay type: biochemical; details: for Residual activity (Vi/V0): Fig. S3 panel b, single replicates
T1 construct: made in house

human CatK = biological target: T2, human CatK (Homo sapiens, UniProt P43235); assay: Cathepsin inhibition test, CatK; assay type: biochemical; details: Fig. S3 panel a, single replicates
T2 construct: made in house
T2 sequence (P43235 115-329): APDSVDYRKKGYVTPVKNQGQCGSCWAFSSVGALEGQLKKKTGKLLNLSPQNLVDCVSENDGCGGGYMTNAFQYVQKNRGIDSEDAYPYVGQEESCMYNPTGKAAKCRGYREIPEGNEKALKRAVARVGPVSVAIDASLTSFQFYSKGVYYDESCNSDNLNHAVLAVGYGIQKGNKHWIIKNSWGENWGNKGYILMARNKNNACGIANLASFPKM

human CatV = biological target: T3, human CatV (Homo sapiens, UniProt O60911); assay: Cathepsin inhibition test, CatV; assay type: biochemical; details: Fig. S3 panel c, single replicates
T3 construct: made in house

SARS-CoV-2-GFP = assay: microbe, parasite or virus in culture; assay type: cell-based; details: mean with standard error, read-out: VERO E6 EC50
[1] = inhibitor 0.189 nM, 0.000189 µM
[2] = inhibitor 0.612 nM, 0.000612 µM
[3] = inhibitor 1.103 nM, 0.001103 µM
[4] = inhibitor 1.985 nM, 0.001985 µM
[5] = inhibitor 3.572 nM, 0.003572 µM
[6] = inhibitor 11.547 nM, 0.011547 µM
[7] = inhibitor 20.833 nM, 0.020833 µM
[8] = inhibitor 0.105 nM, 0.000105 µM

T1 sequence (P07711 114-333): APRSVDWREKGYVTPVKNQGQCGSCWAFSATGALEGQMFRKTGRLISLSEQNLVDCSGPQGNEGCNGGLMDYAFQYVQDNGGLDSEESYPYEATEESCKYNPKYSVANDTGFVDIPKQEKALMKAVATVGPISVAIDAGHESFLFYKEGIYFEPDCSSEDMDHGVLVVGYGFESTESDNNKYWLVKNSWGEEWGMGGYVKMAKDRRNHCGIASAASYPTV
T3 sequence (O60911 114-334): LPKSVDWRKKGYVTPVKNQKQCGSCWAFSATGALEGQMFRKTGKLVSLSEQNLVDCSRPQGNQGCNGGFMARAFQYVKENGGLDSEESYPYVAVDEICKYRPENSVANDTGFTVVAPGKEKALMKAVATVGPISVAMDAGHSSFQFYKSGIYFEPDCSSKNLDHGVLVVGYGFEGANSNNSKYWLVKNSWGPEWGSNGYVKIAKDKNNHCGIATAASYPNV

`CC(C)C[C@H](NC(=O)OCc1ccccc1)C(=O)N[C@@H](C[C@@H]1CCNC1=O)C(O)S(=O)(=O)[O-].[Na+]` (stereo partly drawn) [GC376] was tested, and the “Residual activity (Vi/V0)” value (CatL; [1]) was 0.8855 and 0.7968 and 0.4672 and 0.774 and 0.5436 and 0.6444 and 0.6384 and 0.5984 and 0.8706 and 0.7685, the “Residual activity (Vi/V0)” value (CatL; inhibitor 0.340 nM, 0.00034 µM) was 0.6489 and 0.6117 and 0.2724 and 0.4771 and 0.3326 and 0.4189 and 0.397 and 0.4003 and 0.6575 and 0.5962 and the “Residual activity (Vi/V0)” value (CatL; [2]) was 0.6544 and 0.4591 and 0.279 and 0.4155 and 0.2277 and 0.7268 and 0.6794 and 0.7031 and 0.6487 and 0.6608. For the same compound, the “Residual activity (Vi/V0)” value (CatL; [3]) was 0.448 and 0.2903 and 0.222 and 0.2673 and 0.2098 and 0.5439 and 0.5159 and 0.5223 and 0.4578 and 0.481, the “Residual activity (Vi/V0)” value (CatL; [4]) was 0.2589 and 0.1857 and 0.1649 and 0.2093 and 0.1658 and 0.3522 and 0.3323 and 0.3518 and 0.2487 and 0.2662 and the “Residual activity (Vi/V0)” value (CatL; [5]) was 0.2062 and 0.1428 and 0.1169 and 0.1623 and 0.08981 and 0.207 and 0.1929 and 0.2019 and 0.196 and 0.2135. For the same compound, the “Residual activity (Vi/V0)” value (CatL; inhibitor 6.430 nM, 0.00643 µM) was 0.139 and 0.09925 and 0.07105 and 0.118 and 0.08137 and 0.1289 and 0.127 and 0.1302 and 0.1295 and 0.1384, the “Residual activity (Vi/V0)” value (CatL; [6]) was 0.09523 and 0.05909 and 0.04564 and 0.05812 and 0.04092 and 0.07914 and 0.07029 and 0.07354 and 0.08822 and 0.09606 and the “Residual activity (Vi/V0)” value (CatL; [7]) was 0.05198 and 0.03378 and 0.02298 and 0.02931 and 0.02488 and 0.02998 and 0.02815 and 0.0288 and 0.05176 and 0.05151. For the same compound, the “Residual activity (Vi/V0)” value (CatL; inhibitor 37.500 nM, 0.0375 µM) was 0.02351 and 0.02002 and 0.01036 (2×) and 0.01453 and 0.0114 and 0.01064 and 0.01075 and 0.02418 and 0.02491, the “Residual activity (Vi/V0)” value (human CatK; inhibitor 0.010 nM, 10 pM) was 1 and 1.168 and 0.9786 and 1.164 and 0.971 and the “Residual activity (Vi/V0)” value (human CatK; inhibitor 0.018 nM, 18 pM) was 1.045 and 0.9537 and 0.8787 and 1.068 and 0.891. For the same compound, the “Residual activity (Vi/V0)” value (human CatK; inhibitor 0.032 nM, 32 pM) was 1.008 and 0.9541 and 1.052 and 1.097 and 0.9731, the “Residual activity (Vi/V0)” value (human CatK; inhibitor 0.058 nM, 58 pM) was 0.9618 and 1.104 and 1 and the “Residual activity (Vi/V0)” value (human CatK; [8]) was 0.7126 and 0.7756 and 0.8857 and 0.9962 and 0.9154. The “Residual activity (Vi/V0)” value (human CatK; [1]) was 0.687 and 0.7701 and 0.8381 and 0.9358 and 0.9354, the “Residual activity (Vi/V0)” value (human CatK; inhibitor 0.340 nM, 0.00034 µM) was 0.5857 and 0.5656 and 0.9002 and 0.8293 and 0.7129 and the “Residual activity (Vi/V0)” value (human CatK; [2]) was 0.5454 and 0.3889 and 0.8833 and 0.6839 and 0.5394. The “Residual activity (Vi/V0)” value (human CatK; [3]) was 0.3854 and 0.2819 and 0.6231 and 0.4604 and 0.4262, the “Residual activity (Vi/V0)” value (human CatK; [4]) was 0.2545 and 0.4374 and 0.3426 and 0.223 and the “Residual activity (Vi/V0)” value (human CatK; [5]) was 0.1189 and 0.1895 and 0.3494 and 0.2326 and 0.2097. The “Residual activity (Vi/V0)” value (human CatK; inhibitor 6.430 nM, 0.00643 µM) was 0.1182 and 0.1529 (2×) and 0.2134 and 0.1788, the “Residual activity (Vi/V0)” value (human CatK; [6]) was 0.09726 and 0.09205 and 0.1617 and 0.0793 and 0.08002 and the “Residual activity (Vi/V0)” value (human CatK; [7]) was -0.01061 and 0.0635 and 0.09619 and 0.03724 and 0.04497. The “Residual activity (Vi/V0)” value (human CatK; inhibitor 37.500 nM, 0.0375 µM) was 0.05483 and -0.02967 and 0.05665 and 0.01671, the “Residual activity (Vi/V0)” value (human CatV; inhibitor 0.010 nM, 10 pM) was 1.0857 and 1.077 and 0.9774 and 0.8982 and 0.991 and 0.8512 and 1.1 and 0.8679 and the “Residual activity (Vi/V0)” value (human CatV; inhibitor 0.018 nM, 18 pM) was 1.336 and 1.266 and 0.9662 and 0.9302 and 1.04 and 0.8965 and 1.124 and 0.9597. The “Residual activity (Vi/V0)” value (human CatV; inhibitor 0.032 nM, 32 pM) was 1.039 and 0.8981 and 0.9517 and 0.9088 and 1.019 and 0.9688 and 1.292 and 0.8604, the “Residual activity (Vi/V0)” value (human CatV; inhibitor 0.058 nM, 58 pM) was 0.6518 and 0.5159 and 0.8896 and 0.8461 and 0.9826 and 0.9436 and 1.221 and 0.8427 and the “Residual activity (Vi/V0)” value (human CatV; [8]) was 0.9622 and 0.7389 and 0.9442 and 0.8081 and 0.8801 and 0.8142 and 1.285 and 0.7581. The “Residual activity (Vi/V0)” value (human CatV; [1]) was 0.6972 and 0.4428 and 0.8137 and 0.7094 and 0.8934 and 0.7434 and 1.066 and 0.6389, the “Residual activity (Vi/V0)” value (human CatV; inhibitor 0.340 nM, 0.00034 µM) was 0.6247 and 0.3497 and 0.4956 and 0.4527 and 0.4873 and 0.5939 and 0.9738 and 0.4752 and the “Residual activity (Vi/V0)” value (human CatV; [2]) was 0.3307 and 0.2457 and 0.4411 and 0.4505 and 0.4917 and 0.4681 and 0.5327 and 0.3674. For the same compound, the “Residual activity (Vi/V0)” value (human CatV; [3]) was 0.3031 and 0.1765 and 0.2948 and 0.2868 and 0.2798 and 0.3141 and 0.3564 and 0.2414.
`CC(C)C[C@H](NC(=O)OCc1ccccc1)C(=O)N[C@@H](CC1CCNC1=O)C(O)S(=O)(=O)O` (stereo partly drawn) [GC-376, reference compound] showed a Ki (CatL; mean with standard deviation and 95% confidence interval, pH 5.5, 37 °C) of 0.000259 µM and an EC50 (SARS-CoV-2-GFP) of 1.07 ± 0.278 µM.
